In US10654792B2, “Carboxylic acid ester prodrug inhibitors of MEK” (DUQUESNE UNIVERSITY OF THE HOLY GHOST, priority 2012, dated 2020):

Columns and labels:
MEK1/2 = test: Western blot, cellular pERK1/2 decrease after EGF stimulation; type: cell-based; conditions: MDA-MB-231 cells, compound 10 μM pretreatment 30 min, then EGF 50 ng/mL 15 min
Method: (§1) Western Blot Analysis of Potential MEK-5 Inhibitors
(§2) The MDA-MB-231 triple negative breast cancer cell line was pretreated with compounds (10 μM) for 30 min followed by stimulation with epidermal growth factor (EGF, 50 ng/mL) for 15 min. Vehicle-treated cells were pretreated with DMSO for 30 min prior to EGF stimulation for 15 min. Protein visualization and quantification analysis was performed using LI-COR Odyssey Imager. *P<0.05 vs. Vehicle, one-way ANOVA followed by Tukey-Kramer test (n=3)

MEK5 = target: T1, MEK5 (Homo sapiens, UniProt Q13163); test: Western blot, cellular pERK5 decrease after EGF stimulation; type: cell-based; conditions: MDA-MB-231 cells, compound 10 μM pretreatment 30 min, then EGF 50 ng/mL 15 min
T1 construct: The MDA-MB-231 triple negative breast cancer cell line was pretreated with compounds; endogenous in cells; host or cells: MDA-MB-231
T1 sequence (Q13163 1-448): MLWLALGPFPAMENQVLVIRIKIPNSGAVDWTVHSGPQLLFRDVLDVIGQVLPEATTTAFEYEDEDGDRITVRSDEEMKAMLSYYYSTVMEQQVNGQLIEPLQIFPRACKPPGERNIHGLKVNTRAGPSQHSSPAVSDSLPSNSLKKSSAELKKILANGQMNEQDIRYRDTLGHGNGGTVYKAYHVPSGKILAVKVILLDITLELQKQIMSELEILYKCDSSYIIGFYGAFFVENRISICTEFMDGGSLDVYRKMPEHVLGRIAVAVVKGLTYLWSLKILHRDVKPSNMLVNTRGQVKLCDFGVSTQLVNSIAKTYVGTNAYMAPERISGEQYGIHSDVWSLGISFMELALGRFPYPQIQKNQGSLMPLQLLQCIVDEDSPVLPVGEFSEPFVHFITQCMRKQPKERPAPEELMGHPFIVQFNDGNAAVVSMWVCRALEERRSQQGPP
Method: as §1, §2

Row | Compound | cellular pERK5 decrease (%) (MEK5) | cellular pERK1/2 decrease (%) (MEK1/2)
1 | COC(=O)c1ccc(F)c(F)c1Nc1ccc(I)cc1F [SC-1-72 Ester] | 20.1% | 98.5%
2 | O=C(O)c1ccc(F)c(F)c1Nc1ccc(I)cc1F [SC-1-148, 3,4-Difluoro-2-((2-fluoro-4-iodophenyl)amino)benzoic Acid] | 20.1% | 98.5%
3 | CN[C@@H]1C[C@H]2O[C@@](C)([C@@H]1OC)n1c3ccccc3c3c4c(c5c6ccccc6n2c5c31)C(=O)NC4 [staurosporine, reference compound] | – | 98.93%

More lines, main results first:

Row | cellular pERK5 decrease (%) (MEK5) | Compound | cellular pERK1/2 decrease (%) (MEK1/2)
4 | 2.1% | O=C(O)c1ccc(F)c(F)c1Nc1ccccc1 [SC-1-175] | 64.4%
5 | 0.28% | N#CC(=C(/N)Sc1ccccc1N)/C(C#N)=C(\N)Sc1ccccc1N [U0126, reference compound] | 99.72%
